In patent US20160102052A1, “Use of Cysteamine in Treating Infections caused by Yeasts/Moulds” (priority 2014, published 2016):

System: Candida albicans 73/025
Assay: Minimum inhibitory concentration test of cysteamine (Lynovex, NM001), CLSI M27-A3
Type: cell-based
Settings: vulvovaginal isolate 73/025; RPMI-1640, 35° C., read at 24 h and 48 h
Method: The aim of the experiment was to determine the MIC of Lynovex (NM001) against vulvovaginal isolate Candida albicans 73/025. Plates were prepared which contain a serial doubling dilution of Lynovex (NM001) at 2× final concentration. The cultures were then prepared in 2×RPMI-1640, according to the CLSI M27-A3 protocol, and mixed in equal volumes in the plate resulting in 1×RPMI-1640, the concentration of compound mentioned below, and the CLSI standard inoculum for C. albicans. These were incubated at 35° C. and read at 24 h and 48 h on the BioTek plate reader.
• 1. Culture of Candida albicans grown overnight at 30° C. • 2. Culture removed from incubator. Add 2 ml sterile dH2O to the overnight culture and wash the cells from the surface of the agar. Cells placed in fresh bijou tube. • 3. Serial doubling dilution carried out and measured against same volume of MacFarland Standard • a. 100 μl culture added to well A1 of microtitre plate. • b. 100 μl sterile dH2O added to wells A2-A11. • c. 100 μl culture added to well A2 of microtitre plate and mixed well resulting in a 1 in 2 dilution. • d. 100 μl taken from A2 and added to A3 on plate and mixed well resulting in a 1 in 4 dilution. • e. This is continued to A11 where 100 μl is removed and discarded. • f. […] Plate read at OD530 on BioTek • h. […]
• 1. […] The plate is read in the BioTek at OD530. • 3. […]

## NCCS [NM001, cysteamine]
  growth of Candida albicans: inhibited the growth
